Assay results from patent US11618743B2, “Herbicidal compounds” (SYNGENTA PARTICIPATIONS AG, priority 2017, dated 2023).

Experiments:
Experiment in all cases: Post-emergence efficacy, Method A
Type in all cases: in vivo
[1] = tested on: Euphorbia heterophylla (EPHHL); details: Application rate 500 g/Ha, evaluated after 13 days; for Control of weed species after post-emergence application, EPHHL: 100=total damage to plant, 0=no damage; for Control of weed species EPHHL after post-emergence application (100=total damage to plant; 0=no damage to plant): Method A
Method: (§1) Seeds of a variety of test species were sown in standard soil in pots. After cultivation for 14 days (post-emergence) under controlled conditions in a glasshouse (at 24/16° C., day/night; 14 hours light; 65% humidity), the plants were sprayed with an aqueous spray solution derived from the dissolution of the technical active ingredient formula (I) in a small amount of acetone and a special solvent and emulsifier mixture referred to as IF50 (11.12% Emulsogen EL360 TM+44.44% N-methylpyrrolidone+44.44% Dowanol DPM glycol ether), to create a 50 g/l solution which was then diluted to required concentration using 0.25% or 1% Empicol ESC70 (Sodium lauryl ether sulphate)+1% ammonium sulphate as diluent.
(§2) The test plants were then grown in a glasshouse under controlled conditions (at 24/16° C., day/night; 14 hours light; 65% humidity) and watered twice daily. After 13 days the test was evaluated (100=total damage to plant; 0=no damage to plant).
(§3) Ipomoea hederacea (IPOHE), Euphorbia heterophylla (EPHHL), Chenopodium album (CHEAL), Amaranthus palmeri (AMAPA), Lolium perenne (LOLPE), Digitaria sanguinalis (DIGSA), Eleusine indica (ELEIN), Echinochloa crus-galli (ECHCG), Setaria faberi (SETFA)

Setaria faberi (SETFA) = details: Application rate 500 g/Ha, evaluated after 13 days; for Control of weed species after post-emergence application, SETFA: 100=total damage to plant, 0=no damage; for Control of weed species SETFA after post-emergence application (100=total damage to plant; 0=no damage to plant): Method A
Method: as §1, §2, §3

[2] = tested on: Amaranthus palmeri (AMAPA); details: Application rate 500 g/Ha, evaluated after 13 days; for Control of weed species after post-emergence application, AMAPA: 100=total damage to plant, 0=no damage; for Control of weed species AMAPA after post-emergence application (100=total damage to plant; 0=no damage to plant): Method A
Method: as §1, §2, §3

[3] = tested on: Digitaria sanguinalis (DIGSA); details: Application rate 500 g/Ha, evaluated after 13 days; for Control of weed species after post-emergence application, DIGSA: 100=total damage to plant, 0=no damage; for Control of weed species DIGSA after post-emergence application (100=total damage to plant; 0=no damage to plant): Method A
Method: as §1, §2, §3

[4] = tested on: Echinochloa crus-galli (ECHCG); details: Application rate 500 g/Ha, evaluated after 13 days; for Control of weed species after post-emergence application, ECHCG: 100=total damage to plant, 0=no damage; for Control of weed species ECHCG after post-emergence application (100=total damage to plant; 0=no damage to plant): Method A
Method: as §1, §2, §3

Eleusine indica (ELEIN) = details: Application rate 500 g/Ha, evaluated after 13 days; for Control of weed species after post-emergence application, ELEIN: 100=total damage to plant, 0=no damage; for Control of weed species ELEIN after post-emergence application (100=total damage to plant; 0=no damage to plant): Method A
Method: as §1, §2, §3

[5] = tested on: Chenopodium album (CHEAL); details: Application rate 500 g/Ha, evaluated after 13 days; for Control of weed species after post-emergence application, CHEAL: 100=total damage to plant, 0=no damage; for Control of weed species CHEAL after post-emergence application (100=total damage to plant; 0=no damage to plant): Method A
Method: as §1, §2, §3

Row | Structure (SMILES) | Control of weed species after post-emergence application, EPHHL [1] | Control of weed species after post-emergence application, SETFA (Setaria faberi (SETFA)) | Control of weed species after post-emergence application, AMAPA [2] | Control of weed species after post-emergence application, DIGSA [3] | Control of weed species after post-emergence application, ECHCG [4] | Control of weed species after post-emergence application, ELEIN (Eleusine indica (ELEIN)) | Control of weed species after post-emergence application, CHEAL [5] | Control of weed species EPHHL after post-emergence application (100=total damage to plant; 0=no damage to plant) [1] | Control of weed species SETFA after post-emergence application (100=total damage to plant; 0=no damage to plant) (Setaria faberi (SETFA)) | Control of weed species AMAPA after post-emergence application (100=total damage to plant; 0=no damage to plant) [2] | Control of weed species DIGSA after post-emergence application (100=total damage to plant; 0=no damage to plant) [3] | Control of weed species ECHCG after post-emergence application (100=total damage to plant; 0=no damage to plant) [4] | Control of weed species ELEIN after post-emergence application (100=total damage to plant; 0=no damage to plant) (Eleusine indica (ELEIN)) | Control of weed species CHEAL after post-emergence application (100=total damage to plant; 0=no damage to plant) [5]
1 | O=C(O)C(O)C[n+]1ccc(-c2ccncn2)cn1.O=C([O-])C(F)(F)F (stereo not shown) [Compound A190] | 80 | 40 | 100 | 60 | 60 | 70 | 80 | – | – | – | – | – | – | –
2 | COC(=O)C(C)[n+]1ccc(-c2ncccn2)cn1.O=C([O-])C(F)(F)F (stereo not shown) [Compound A192] | 40 | 20 | 90 | 30 | 30 | 30 | 60 | – | – | – | – | – | – | –
3 | Cc1cncc(-c2cc[n+](CCC(=O)O)nc2)n1.O=C([O-])C(F)(F)F [Compound A85] | – | – | – | – | – | – | – | 100 | 90 | 90 | 90 | 70 | 90 | 90
4 | O=C(O)CC[n+]1ccc(-c2ncccc2Cl)cn1.O=C([O-])C(F)(F)F [Compound A149] | – | – | – | – | – | – | – | 30 | 40 | 30 | 50 | 50 | 60 | 40
5 | O=C([O-])C(F)(F)F.O=S(=O)(O)CCC[n+]1ccc(-c2cnccn2)cn1 [Compound A10] | – | – | – | – | – | – | – | 100 | 60 | 100 | 60 | 30 | 50 | 100
6 | COC(=O)CC[n+]1ccc(-c2ncccn2)cn1.O=C([O-])C(F)(F)F [Compound A54, methyl 3-(4-pyrimidin-2-ylpyridazin-1-ium-1-yl)propanoate 2,2,2-trifluoroacetate] | – | – | – | – | – | – | – | 70 | 100 | 90 | 100 | 90 | 100 | 90
7 | COC(=O)CC[n+]1ccc(-c2cccnn2)cn1.O=C([O-])C(F)(F)F [Compound A139] | – | – | – | – | – | – | – | 90 | 100 | 80 | 100 | 100 | 100 | 100
8 | Nc1cc(-c2cc[n+](CCC(=O)O)nc2)ccn1.O=C([O-])C(F)(F)F [Compound A210] | 10 | 30 | 70 | 60 | 10 | 20 | 10 | – | – | – | – | – | – | –
9 | Nc1nccc(-c2cc[n+](CCC(=O)O)nc2)n1.O=C([O-])C(F)(F)F [Compound A160] | 90 | 90 | 100 | 70 | 70 | 80 | 100 | – | – | – | – | – | – | –
10 | CCOC(=O)CC[n+]1ccc(-c2ncccn2)cn1.O=C([O-])C(F)(F)F [Compound A82] | – | – | – | – | – | – | – | 40 | 60 | 70 | 30 | 30 | 60 | 80
11 | CC(CC(=O)O)[n+]1ccc(-c2ccncn2)cn1.O=C([O-])C(F)(F)F (stereo not shown) [Compound A172] | 50 | 50 | 30 | 80 | 50 | 70 | 60 | – | – | – | – | – | – | –
12 | O=C(O)CC[n+]1ccc(-c2cnc(C(F)(F)F)cn2)cn1.O=C([O-])C(F)(F)F [Compound A121] | – | – | – | – | – | – | – | 80 | 30 | 100 | 40 | 40 | 20 | 80
13 | O=C(O)CC[n+]1ccc(-c2ncc(F)cc2F)cn1.O=C([O-])C(F)(F)F [Compound A144] | – | – | – | – | – | – | – | 20 | 20 | 20 | 30 | 20 | 20 | 10
14 | CC(C)(C[n+]1ccc(-c2ccncn2)cn1)C(=O)O.O=C([O-])C(F)(F)F [Compound A167] | 90 | 40 | 20 | 50 | 60 | 80 | 70 | – | – | – | – | – | – | –
15 | Cc1n[n+](CCC(=O)O)ccc1-c1ncccn1.O=C([O-])C(F)(F)F [Compound A132] | – | – | – | – | – | – | – | 30 | 100 | 90 | 90 | 70 | 90 | 30
16 | O=C(O)CC[n+]1ccc(-c2ncc(C(F)(F)F)cc2Cl)cn1.O=C([O-])C(F)(F)F [Compound A197] | 10 | 0 | 100 | 20 | 0 | 10 | 10 | – | – | – | – | – | – | –
